Source: US20250042857A1, “SOS1 Inhibitor With Pyrido-Fused Six-Membered Ring Structure” (HAIHE BIOPHARMA CO., LTD., priority 2021, published 2025)
Read-outs that look alike come from different tables or passages of the source.

How the values were obtained:
p-ERK of PC-9 cells = test: p-ERK HTRF assay in PC-9 cells; format: cell-based; conditions: PC-9 lung cancer cells, 1 hour treatment, read-out: IC50, inhibitory activity on p-ERK of PC-9 cells
Method: IC50 Values of Compounds Determined by p-ERK HTRF Assay in PC-9 Cells
Experimental objective: an inhibitory effect of the test compounds on the phosphorylation of PC-9ERK of lung cancer cells at a cellular level was evaluated by detecting the phosphorylation of ERK.
• PRMI 1640 medium (Invitrogen-11875093) • 0.25% pancreatin (Invitrogen-25200056) • Phosphoric acid buffer salt solution (PBS, pH 7.4) (Invitrogen-10010023) • Double-antibody (PS) (Invitrogen-15140122) • Fetal bovine serum (FBS) (Gibco-10091148) • Trypan blue (Gibco-15250061) • 10-cm culture dish (Corning-430167) • 10-mL pipette (Costar-4488) • Pipettor (Sartorius-17009031) • 15-mL centrifuge tube (Corning-430052) • 50-mL centrifuge tube (Corning-430829) • Cryotube (Thermo-377267) • 1.5-mL EP tube (Axygen-MCT-150-C-S) • Cell incubator (Thermo-371) • Microscope (Olympus-CKX41) • Centrifuge (Flying Pigeon-TDL-80-2B) • Cell counter (Countstar-IC-1000) • Envision (Perkin Elmer) • Spark 10M (TECAN) • Phospho-ERK1/2 (Thr202/Tyr204) Experimental kit (Cisbio, Cat. No. 64AERPEG) • PC-9 cells: RPMI1640+10% FBS+1% PS
• 1) PBS, 0.25% pancreatin, and a cell culture medium were placed in a water-bath kettle at 37° C. for preheating; • 2) cells were observed under a microscope, a fusion degree was evaluated, and no bacterial and fungi pollution was confirmed; • 3) a culture solution was removed, the cells were washed with 5 mL of PBS and digested with 2 mL of the 0.25% trypsin, the digestion was terminated with 10 mL of the fresh cell culture medium, a culture dish was rinsed, and the cells were transferred to a 15-mL centrifuge tube; • 4) the collected cells were centrifuged at 1,000 rpm for 5 minutes; • 5) after the centrifugation, the supernatant was discarded, the cells were resuspended in 5 mL of the cell culture medium, 20 μL of the resuspended cells were aspirated, and the number and viability of viable cells were recorded; • 6) the cell culture medium was used and the cell density was adjusted (PC-9:10,000 cells/well, and 45 μL per well); • 7) in a 384-well plate, 45 μL of a cell suspension per well was transferred according to an experimental design figure; and • 8) the cells were incubated overnight at 37° C. and 5% CO2.
• 1) The compounds were diluted from the stock concentration to 10 mM with 100% DMSO (Trametinib was diluted to 1 mM), then 3-fold diluted into 10 points (5 μL of the diluted compounds with the concentration of 10 mM were transferred to 10 μL of the DMSO in an LDV plate), and centrifuged at 1,000 rpm/min for 1 minute; • 2) 5 μL of the diluted compounds of step 1) were transferred to an inter plate 1 containing 45 μL of the cell culture medium (the compounds were diluted from 1,000× to 100×); • 3) 5 μL of the diluted compounds of step 2) were transferred to an inter plate 2 containing 45 μL of the cell culture medium (the compounds were diluted from 100× to 10×); • 4) 5 μL of the compounds were pipetted from the inter plate 2 into a cell culture plate (the compounds were diluted from 10 folds to 1 fold), the final concentrations of the test compounds were 10,000 nM, 3333.33 nM, 1111.11 nM, 370.37 nM, 123.46 nM, 41.15 nM, 13.72 nM, 4.57 nM, 1.52 nM, and […], the solution was centrifuged at 1,000 rpm/min for 1 minute, and the final content of the DMSO was 0.1%; and • 5) the cells were treated in an incubator at 37° C. for 1 hour. […]

KRAS-G12C/SOS1 = KRAS-G12C/SOS1 (Homo sapiens (Human), UniProt Q07889); test: Detection of inhibitory effects of compounds on KRAS-G12C/SOS1 (KRASG12C/SOS binding kit, HTRF); conditions: Em665/620, read-out: IC50, inhibitory activity on interaction of KRAS-G12C/SOS1
KRAS-G12C/SOS1, sequence (Q07889 whole entry, stated change not applied): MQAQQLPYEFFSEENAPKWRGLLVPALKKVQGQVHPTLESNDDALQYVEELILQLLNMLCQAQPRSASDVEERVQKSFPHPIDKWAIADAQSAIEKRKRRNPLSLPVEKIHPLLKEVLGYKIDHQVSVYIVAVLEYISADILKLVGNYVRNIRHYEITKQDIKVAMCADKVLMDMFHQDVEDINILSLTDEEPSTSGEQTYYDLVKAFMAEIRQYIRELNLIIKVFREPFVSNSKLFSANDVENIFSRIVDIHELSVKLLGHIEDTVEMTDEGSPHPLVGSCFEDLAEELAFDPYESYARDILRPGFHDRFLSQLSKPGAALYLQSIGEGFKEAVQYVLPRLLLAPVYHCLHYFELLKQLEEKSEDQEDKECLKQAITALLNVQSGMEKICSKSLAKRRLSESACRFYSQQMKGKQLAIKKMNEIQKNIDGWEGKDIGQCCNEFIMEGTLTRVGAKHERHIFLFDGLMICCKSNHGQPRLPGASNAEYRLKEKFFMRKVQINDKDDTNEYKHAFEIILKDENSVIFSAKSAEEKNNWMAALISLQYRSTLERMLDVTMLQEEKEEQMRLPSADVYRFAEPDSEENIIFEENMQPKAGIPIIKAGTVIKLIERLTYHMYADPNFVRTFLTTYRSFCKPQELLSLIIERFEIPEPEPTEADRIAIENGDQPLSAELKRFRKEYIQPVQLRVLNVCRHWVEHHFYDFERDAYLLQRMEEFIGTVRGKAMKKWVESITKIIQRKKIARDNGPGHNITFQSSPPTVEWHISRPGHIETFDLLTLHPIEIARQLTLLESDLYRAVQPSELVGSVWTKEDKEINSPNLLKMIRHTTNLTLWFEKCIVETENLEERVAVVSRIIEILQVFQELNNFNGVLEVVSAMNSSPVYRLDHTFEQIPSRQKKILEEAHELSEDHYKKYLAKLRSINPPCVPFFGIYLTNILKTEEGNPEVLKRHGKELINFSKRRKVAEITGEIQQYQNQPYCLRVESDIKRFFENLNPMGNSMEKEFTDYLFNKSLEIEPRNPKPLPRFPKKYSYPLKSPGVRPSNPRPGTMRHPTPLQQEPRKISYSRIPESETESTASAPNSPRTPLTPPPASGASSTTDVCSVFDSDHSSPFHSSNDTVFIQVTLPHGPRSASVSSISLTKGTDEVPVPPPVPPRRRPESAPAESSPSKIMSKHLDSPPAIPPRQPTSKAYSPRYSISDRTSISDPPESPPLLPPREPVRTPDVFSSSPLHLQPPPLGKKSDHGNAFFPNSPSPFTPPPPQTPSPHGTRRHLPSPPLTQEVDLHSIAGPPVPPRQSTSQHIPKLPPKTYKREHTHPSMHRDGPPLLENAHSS
Description: Experimental objective: The inhibitory effects of the tested compounds on KRAS-G12C/SOS1 were detected. IC50 was used to characterize the inhibitory ability of the compounds on the KRAS-G12C/SOS1. The lower IC50 value indicated the stronger inhibitory ability. BI-3406 was used as a positive control compound.
Experimental reagents: KRASG12C/SOS binding kit (Cisbio, cat. 63ADK000CB16PEG); DMSO (Sigma, cat. D8418-1L); and 384-well white plate (PerkinElmer, cat. 6007290)
• 1. Preparation of compounds: the test compounds were dissolved in 100% DMSO to obtain 10 mM stock solutions and the stock solutions were stored in a refrigerator in the dark. • 2. Kinase reaction process:
Preparation of compounds: the test compounds had the concentration of 5,000 nM and diluted in a 384-well plate into a 100% DMSO solution at the 200-fold final concentration, and the compounds were diluted 3-fold with 10 concentrations. 50 nL of the compounds at the 200-fold final concentration were transferred to the plate of interest, the 384-well plate, using a dispenser Echo 550. 50 nL of 100% DMSO was added to each negative control well and positive control well.
A Tag1-SOS1 solution at the 4-fold final concentration was prepared using a diluent buffer.
2.5 μL of the Tag1-SOS1 solution at the 4-fold final concentration was added to the 384-well plate.
A Tag2-KRAS-G12C solution at the 4-fold final concentration was prepared using the diluent buffer.
2.5 μL of the Tag2-KRAS-G12C solution at the 4-fold final concentration was respectively added into compound wells and the positive control wells; and 2.5 μL of the diluent buffer was added to the negative control wells.
The 384-well plate was centrifuged at 1,000 rpm for 30 seconds, shaken and mixed uniformly, and incubated at room temperature for 15 minutes.
An Anti-Tag1-TB3+ solution at the 1-fold final concentration and an Anti-Tag2-XL665 solution at the 1-fold final concentration were prepared using a detection buffer, the two solutions were mixed uniformly to obtain a Mix solution, and 5 μL of the Mix solution was added into each well.
The 384-well plate was centrifuged at 1,000 rpm for 30 seconds, shaken and mixed uniformly, and incubated at 4° C. for 120 minutes.
Em665/620 was read using an Envision microplate reader.
Inhibition %=(Max signal−Compound signal)/(Max signal−Min signal)×100 Calculation formula • wherein the Min signal was the mean value of the negative control wells, and the Max signal was the mean value of the positive control wells.
A dose-response curve was fitted using the log value of the concentration as an X axis and the percentage of the inhibitory rate as a Y axis by using the log(inhibitor) vs. response-variable slope of an analytical software GraphPadPrism5, thereby obtaining the IC50 value of each compound on an enzyme activity.

Row | Compound | IC50 (p-ERK of PC-9 cells; Homo sapiens, PC-9, 1 h) [nM] | IC50 (KRAS-G12C/SOS1) [nM] | IC50 (p-ERK of PC-9 cells) [nM]
1 | C[C@@H](Nc1ccnc2cnc(C3(O)CCC(O)CC3)cc12)c1cccc(C(F)(F)F)c1F (single isomer, unassigned) [Compound B-85-P1] | 300 to 1000 | ≤ 100 | 
2 | C[C@@H](Nc1ccnc2cnc(C3(O)CCC(O)CC3)cc12)c1cccc(C(F)(F)F)c1F (single isomer, unassigned) [Compound B-85-P2] |  | ≤ 100 | ≤ 300
3 | C[C@@H](Nc1ccnc2cnc(C3(O)CCC(O)CC3)cc12)c1cccc(C(C)(F)F)c1F (single isomer, unassigned) [Compound B-87-P1] | > 1000 | 100 to 500 | 
4 | C[C@@H](Nc1ccnc2cnc(C3(O)CCC(O)CC3)cc12)c1cccc(C(C)(F)F)c1F (single isomer, unassigned) [Compound B-87-P2] |  | 100 to 500 | > 1000
5 | Cc1cc(N[C@H](C)c2cccc(C(F)F)c2F)c2cc(C3(O)CCC(O)CC3)ncc2n1 (single isomer, unassigned) [Compound B-88-P2] | 300 to 1000 | ≤ 100 | 
6 | C[C@@H](Nc1ccnc2cnc(C3(O)CCC(N(C)C)CC3)cc12)c1cccc(C(F)F)c1F (single isomer, unassigned) [Compound B-94-P2] | ≤ 300 | ≤ 100 | 
7 | C[C@@H](Nc1ccnc2cnc(C3(O)CCC(N4CCNCC4)CC3)cc12)c1cccc(C(F)F)c1F (single isomer, unassigned) [Compound B-97-P2] | 300 to 1000 | ≤ 100 | 
8 | C[C@@H](Nc1ccnc2cnc(C3(O)CCC(C(C)(C)O)CC3)cc12)c1cccc(C(F)(F)F)c1F (single isomer, unassigned) [Compound B-115-P1] |  | 100 to 500 | > 1000
9 | C[C@@H](Nc1ccnc2cnc(C3(O)CCC(C(C)(C)O)CC3)cc12)c1cccc(C(F)(F)F)c1F (single isomer, unassigned) [Compound B-115-P2] |  | ≤ 100 | ≤ 300
10 | COc1nc(C2(O)CCC(O)CC2)cc2c(N[C@H](C)c3cccc(C(F)F)c3F)ccnc12 (single isomer, unassigned) [Compound B-178-P1] |  | ≤ 100 | > 1000
11 | COc1nc(C2(O)CCC(O)CC2)cc2c(N[C@H](C)c3cccc(C(F)F)c3F)ccnc12 (single isomer, unassigned) [Compound B-178-P2] |  | ≤ 100 | ≤ 300
12 | CC(=O)N1CCC(c2cc(F)c3nccc(N[C@H](C)c4cccc(C(F)F)c4F)c3c2)CC1 [Compound A-99] | ≤ 300 | ≤ 100 | 
13 | CC(=O)N1CCN(c2cc(F)c3nccc(N[C@H](C)c4cccc(C(F)F)c4F)c3c2)CC1 [Compound A-100] | ≤ 300 | ≤ 100 | 
14 | COc1c(C2=CCN(C(C)=O)CC2)cc2c(N[C@H](C)c3cccc(C(F)F)c3F)ccnc2c1F [Compound A-101] | 300 to 1000 | ≤ 100 | 
15 | COc1c(N2CCN(C(C)=O)CC2)cc2c(N[C@H](C)c3cccc(C(F)F)c3F)ccnc2c1F [Compound A-102] | ≤ 300 | ≤ 100 | 
16 | C[C@@H](Nc1ccnc2cnc(C3CC3)cc12)c1cccc(C(F)F)c1F [Compound B-1] | 300 to 1000 | ≤ 100 | 

Row | Compound | IC50 (p-ERK of PC-9 cells; Homo sapiens, PC-9, 1 h) [nM] | IC50 (KRAS-G12C/SOS1) [nM] | IC50 (p-ERK of PC-9 cells) [nM]
17 | CC(=O)N1CC=C(c2cc3c(N[C@H](C)c4cccc(C(F)F)c4F)ccnc3cn2)CC1 [Compound B-3] | ≤ 300 | ≤ 100 | 
18 | CC(=O)N1CCC(c2cc3c(N[C@H](C)c4cccc(C(F)F)c4F)ccnc3cn2)CC1 [Compound B-4] | ≤ 300 | ≤ 100 | 
19 | CC(=O)N1CCC(O)(c2cc3c(N[C@H](C)c4cccc(C(F)F)c4F)ccnc3cn2)CC1 [Compound B-17] | ≤ 300 | ≤ 100 | 
20 | C[C@@H](Nc1ccnc2cnc(N3CCOCC3)cc12)c1cccc(C(F)F)c1F [Compound B-21] | 300 to 1000 | ≤ 100 | 
21 | C[C@@H](Nc1ccnc2cnc(N3CCNCC3)cc12)c1cccc(C(F)F)c1F [Compound B-22] | 300 to 1000 | ≤ 100 | 
22 | CC(=O)N1CCN(c2cc3c(N[C@H](C)c4cccc(C(F)F)c4F)ccnc3cn2)CC1 [Compound B-23] | ≤ 300 | ≤ 100 | 
23 | C[C@@H](Nc1ccnc2cnc(N3CCC(O)CC3)cc12)c1cccc(C(F)F)c1F [Compound B-24] | ≤ 300 | ≤ 100 | 
24 | C[C@@H](Nc1ccnc2cnc(N3CCn4ccnc4C3)cc12)c1cccc(C(F)F)c1F [Compound B-29] | 300 to 1000 |  | 
25 | C[C@@H](Nc1ccnc2cnc(N3CCn4cncc4C3)cc12)c1cccc(C(F)F)c1F [Compound B-30] | ≤ 300 |  | 
26 | C[C@@H](Nc1ccnc2cnc(N3CC[C@@H](N)C3)cc12)c1cccc(C(F)F)c1F [Compound B-31] | 300 to 1000 | ≤ 100 | 
27 | CC(=O)N[C@@H]1CCN(c2cc3c(N[C@H](C)c4cccc(C(F)F)c4F)ccnc3cn2)C1 [Compound B-32] | ≤ 300 | ≤ 100 | 
28 | C[C@@H](Nc1ccnc2cnc(N3CC[C@H](N)C3)cc12)c1cccc(C(F)F)c1F [Compound B-33] | 300 to 1000 | ≤ 100 | 
29 | C[C@@H](O)C(=O)N1CCC(O)(c2cc3c(N[C@H](C)c4cccc(C(F)F)c4F)ccnc3cn2)CC1 [Compound B-120] | ≤ 300 |  | 
30 | C[C@@H](Nc1ccnc2cnc(C3(O)CCN(C(=O)C[C@@H]4CNCCO4)CC3)cc12)c1cccc(C(F)F)c1F [Compound B-142] | > 1000 |  | 
31 | C[C@@H](Nc1ccnc2cnc(C3(O)CCN(C(=O)C[C@H]4CNCCO4)CC3)cc12)c1cccc(C(F)F)c1F [Compound B-143] | > 1000 |  | 
32 | C[C@@H](Nc1ccnc2cnc(N3CCCS3(=O)=O)cc12)c1cccc(C#N)c1F [Compound B-166] | ≤ 300 |  | 
